Experimental data taken from patent US11932645B2, “Substituted pyrazolo[1,5-a]pyrimidines and their use in the treatment of medical disorders” (Bial—R&D Investments, S.A., priority 2014, dated 2024).

Experiments:
[1] = Compound solubility in water; assay type: physicochemical
[2] = biological target: T1, glucocerebrosidase (Gcase) (Homo sapiens, UniProt P04062); assay: Glucocerebrosidase (Gcase) activation assay, 4-methylumbelliferyl-beta-D-glucopyranoside substrate, with saposin C; assay type: biochemical; details: 10 nM GCase, 100 nM saposin C, pH 4.7
T1 sequence (P04062 40-536): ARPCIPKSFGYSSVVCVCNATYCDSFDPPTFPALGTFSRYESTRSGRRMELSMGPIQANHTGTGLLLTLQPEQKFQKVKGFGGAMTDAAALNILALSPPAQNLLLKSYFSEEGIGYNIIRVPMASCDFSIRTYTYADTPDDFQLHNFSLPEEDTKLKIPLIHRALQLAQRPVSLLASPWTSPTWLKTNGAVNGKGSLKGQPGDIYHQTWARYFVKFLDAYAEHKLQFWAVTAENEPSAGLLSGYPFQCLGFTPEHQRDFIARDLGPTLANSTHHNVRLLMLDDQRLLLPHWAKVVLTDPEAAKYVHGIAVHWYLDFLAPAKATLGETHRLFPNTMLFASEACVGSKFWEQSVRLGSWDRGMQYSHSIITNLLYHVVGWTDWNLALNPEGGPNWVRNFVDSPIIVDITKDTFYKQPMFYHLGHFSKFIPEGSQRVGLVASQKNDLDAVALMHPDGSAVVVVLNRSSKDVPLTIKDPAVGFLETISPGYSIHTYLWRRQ
Experimental: The ability of exemplary compounds to activate glucocerebrosidase (Gcase) was measured.
A 484 μL aliquot of a 1.0 mg/mL solution of phosphatidylserine (PS) (Sigma P7769) in chloroform was evaporated under a stream of nitrogen for 1 hour. The lipid film was dissolved over 4 minutes of vigorous vortexing in 40 mL of 176 mM K2HPO4/50 mM citric acid (pH 4.7) containing 7.5 μL of triton X-100, resulting in a mixed micellar preparation with a composition of 0.32 mM triton and 0.37 mol % PS. 4-Methylumbelliferyl-beta-D-glucopyranoside (ACROS-337025000) was dissolved in the micellar solution to a final concentration of 2 mM for use as the reaction substrate.
Test compounds were diluted to the desired concentrations with dimethylsulfoxide (DMSO) from 10 mM stocks, and 0.41 μL of the DMSO compound mixture was added to 100 μL of micellar solution containing 10 nM GCase and 100 nM saposin C (Enzo ALX-201-262-C050). Pre-incubation was allowed to occur for 30 minutes at room temperature, after which the reaction was initiated by combining 25 μL of substrate solution with 25 μL of compound/GCase/saposin mixture. The reaction proceeded for 15 minutes at room temperature and was stopped by adding 150 μL of 1M glycine, pH 12.5. The endpoint of the reaction was monitored by measuring fluorescence intensity (excitation: 365 nm; emission: 440 nm) on a SpectraMax i3 instrument (Molecular Devices). Test compounds were screened at 1.0 and 0.1 μM final concentration, and subsequent 8-point dose response curves were obtained using 3-fold dilutions from a maximum final concentration of 5 μM.
For experiments in which the test compound was used at a concentration of 1.0 μM, the symbol “+” indicates less than 30% Gcase activation; the symbol “++” indicates Gcase activation in the range of 30% up to 60%; and the symbol “+++” indicates Gcase activation greater than 60%. For experiments in which the test compound was used at a concentration of 0.1 μM, the symbol “*” indicates less than 10% Gcase activation; the symbol “**” indicates Gcase activation in the range of 10% up to 20%; and the symbol “***” indicates greater than 20% Gcase activation.

Compound | Compound Solubility in Water [1] [µg/mL] | Percent Gcase Activation 1 μM Test Compound [2] | Percent Gcase Activation 0.1 μM Test Compound [2]
Cc1cc(C)n2ncc(C(=O)Nc3ccc(-c4ccc[nH]4)cc3)c2n1 [III-76] | 0.01 | ++ (Gcase activation in the range of 30% up to 60%) | ** (Gcase activation in the range of 10% up to 20%)
Cc1cc(C)n2ncc(C(=O)NC3CCc4ccccc43)c2n1 (centres unmarked) [III-79] | – | – | ** (Gcase activation in the range of 10% up to 20%)
C#Cc1ccc(NC(=O)c2cnn3c(C)cc(C)nc23)cc1 [IV-1] | – | ++ (Gcase activation in the range of 30% up to 60%) | ** (Gcase activation in the range of 10% up to 20%)
Cc1cc(C)n2ncc(C(=O)Nc3ccc(C#CCN(C)C)cc3)c2n1 [IV-2] | – | + (less than 30% Gcase activation) | * (less than 10% Gcase activation)
Cc1cc(C)n2ncc(C(=O)Nc3ccc(N4CCCCC4)cc3)c2n1 [IV-3] | – | + (less than 30% Gcase activation) | * (less than 10% Gcase activation)
Cc1cc(C)n2ncc(C(=O)Nc3ccc4c(c3)OCO4)c2n1 [IV-4] | – | ++ (Gcase activation in the range of 30% up to 60%) | * (less than 10% Gcase activation)
Cc1cc(C)n2ncc(C(=O)Nc3ccc4c(c3)CCC4)c2n1 [IV-5] | – | +++ (Gcase activation greater than 60%) | ** (Gcase activation in the range of 10% up to 20%)

Continued, in another order:

Compound Solubility in Water [1] [µg/mL] | Percent Gcase Activation 1 μM Test Compound [2] | Compound | Percent Gcase Activation 0.1 μM Test Compound [2]
<1.5 | + (less than 30% Gcase activation) | Cc1cc(C)n2ncc(C(=O)Nc3ccc(-c4ccc[nH]4)cc3)c2n1 [III-57] | ** (Gcase activation in the range of 10% up to 20%)
– | +++ (Gcase activation greater than 60%) | Cc1cc(C)n2ncc(C(=O)Nc3ccc(Cl)c(C(C)Oc4cccnc4)c3)c2n1 (centres unmarked) [III-75] | * (less than 10% Gcase activation)
– | +++ (Gcase activation greater than 60%) | C#Cc1ccc(NC(=O)c2cnn3c(C)cc(NC)nc23)cc1 [III-77] | *** (greater than 20% Gcase activation)
– | + (less than 30% Gcase activation) | C#Cc1ccc(NC(=O)c2cnn3c(NC)cc(C)nc23)cc1 [III-78] | ** (Gcase activation in the range of 10% up to 20%)
